Assay results: paper PMC6801819, “Exogenous Iron Increases Fasciocidal Activity and Hepatocellular Toxicity of the Synthetic Endoperoxides OZ78 and MT04” (International Journal of Molecular Sciences, 2019)
Read-outs that look alike come from different tables or passages of the source.

Legend:
[1] = system: NMRI mice; assay: Liver toxicity study in mice (plasma AST, aPhos, bilirubin, liver histology); assay type: in vivo, mouse; conditions: for Histopathologic observation: liver 8 hours; for plasma alkaline phosphatase (aPhos) / plasma aspartate aminotransferase (AST) / total serum bilirubin: single oral dose 200-800 mg/kg, 8 h post-treatment; for hepatic toxicity in vivo (overall): single oral doses up to 800 mg/kg
Description: All animal studies were carried out at the Swiss Tropical and Public Health Institute (Basel, Switzerland) and were approved by Swiss and cantonal authorities (permission: 2070). Female NMRI mice (age: 3–4 weeks, weight: ~20 g) were purchased from Harlan Laboratories (Horst, The Netherlands). Mice were kept in groups of 10 animals in macrolon-cages in environmentally controlled conditions (temperature: ~25 °C; humidity: ~70%; 12 h light/dark cycle) and acclimatized for one week. They had free access to water and rodent diet. For the in vivo studies AS, OZ78 or MT04 were suspended in 7% (v/v) Tween-80 and 3% (v/v) ethanol.
Since treatment of F. hepatica infections in animals is typically performed by a single oral dose, we performed a pilot study to find out the best time point to kill the mice at which we could observe hepatic toxicity after drug application. This time point was 8 h after drug application (data not shown).
In the final experiment, mice were treated with 200, 400, or 800 mg/kg AS, OZ78, or MT04 by oral gavage. Seven mice were left untreated for control measurements. According to the results of the pilot experiments, where we measured the highest increase in total serum bilirubin, AST or alkaline phosphatase 8 h post-treatment, mice were euthanized by CO2 8 h post-treatment, blood was collected and analyzed as described above. After blood collection, the liver was removed, carefully examined macroscopically, and gross lesions were recorded. Livers were then stored in formalin 10% (v/v) until fixation in 4% paraformaldehyde was performed. After embedding in paraffin, sections of 5 μm thickness were obtained, stained with hematoxylin and eosin, and examined using light microscopy.

[2] = system: complex I of the mitochondrial electron transport chain; assay: High-resolution respirometry, glutamate/malate (complex I); assay type: cell-based, human; conditions: AS 100 µM, OZ78 500 µM, MT04 500 µM, 24 h, permeabilized HepG2, vs DMSO
Description: After incubation with different drugs for 24 h, HepG2 cells were trypsinized and resuspended in DMEM with 10% fetal calf serum (FCS) and then centrifuged for 5 min (180× g). Cells were resuspended in MiRo5 respiration buffer (110 mM sucrose, 0.5 mM ethylene glycol-bis(β-aminoethyl ether)-N,N,N′,N′-tetraacetic acid (EGTA), 3.0 mM MgCl2, 80 mM KCl, 60 mM K-lactobionate, 10 mM KH2PO4, 20 mM taurine, 20 mM Hepes, 1.0 g/L BSA, pH 7.1). Respiration rates were measured at 37 °C using a high-resolution oxygraph (Oxygraph-2k, Oroboros Instruments, Innsbruck, Austria). Respiration rates were calculated as the time derivative of oxygen concentration measured in the closed respirometer. The amplified signal was recorded in a computer with an online display of the calibrated oxygen concentration and oxygen flux (DatLab software for data acquisition and analysis; Oroboros Instruments). The mitochondrial complex activity was assessed by a standard titration protocol: first cells were permeabilized with digitonin (10 µg/1 million cells) for 5 min. Afterward, for complex I-dependent maximal respiration stimulation, substrates added were glutamate (10 mM) and malate (5 mM), which provide nicotinamide adenine dinucleotide (NADH) to the respiratory chain (complex I activation), followed by addition of ADP (2.5 mM) (state 3, maximal respiration). After a stable signal was reached and marked, rotenone (0.5 µM) was added to inhibit complex I, and then complex II-dependent respiration was stimulated by adding succinate (10 mM), which provides flavin adenine dinucleotide (FADH) to the respiratory chain (complex II activation, state 3). Afterward, complex III was inhibited by antimycin A (2.5 µM), and complex IV-dependent respiration was measured by adding ascorbate (2 mM) and N,N,N′,N′-tetramethyl-p-phenylendiamine (TMPD, 0.5 mM). We confirmed the integrity of the outer mitochondrial membrane by showing the absence of a stimulatory effect of exogenous cytochrome c (10 µM) on respiration. Respiration was expressed as oxygen consumption per 5 × 10^5 cells.

[3] = system: adult F. hepatica; assay: In vitro/ex vivo adult worm viability assay; assay type: cell-based, Fasciola hepatica; conditions: for viability of adult F. hepatica (viability score): score 4 normal activity to 1 death; for viability of adult F. hepatica: 48 h
Description: The experiments were performed, as described previously. Adult F. hepatica were collected from bovine liver bile ducts obtained from the local slaughterhouse (Basel, Switzerland). After careful washing, a single adult worm was placed per well (6-well plate, Costar, MA, USA) containing 5.4 mL RPMI 1640 (Gibco, N.Y., USA), supplemented with 1% (v/v) antibiotics (50 µg/mL streptomycin and 50 U/mL penicillin), 1% (v/v) drug solution, […] Control worms were incubated in 1% (v/v) DMSO combined with iron or hemin. Experiments were conducted in triplicates and repeated once. Cultures were kept at 37 °C in an atmosphere of 5% CO2. The viabilities of treated and untreated worms were monitored at 0, 24, 48, and 72 h. Worms were examined by eye and/or using a dissecting microscope (20× lenses). The viability of adult flukes was scored using the following scale: 4: normal activity; movements were visible without a microscope, 3: reduced activities, 2: very weak activities detected only using microscopic magnification, and 1: death of worm (no movement observed for two min using a microscope).

[4] = system: mice; conditions: cited from earlier work
[5] = Drug solutions in cell culture medium; assay type: physicochemical; conditions: from DMSO stock
Description: Stock solutions of the drugs tested were prepared in DMSO 100% (v/v). […] LC-MS measurements confirmed the stability of the compounds (data not shown). Treatments with AS, MT04, or OZ78 (100 or 500 µM) were performed either alone or in combination with 8% (v/v) hemin or FeCl2 solution for 24 h. The final iron concentration used was 122 µM (stock 1.5 mM) based on previous in vitro studies with F. hepatica.

[6] = set-up: method as in PMID 15318224; conditions: cited from earlier work
[7] = system: F. hepatica; conditions: sheep naturally infected with F. hepatica; cited from earlier work
[8] = system: F. hepatica; set-up: method as in PMID 21316331; conditions: 50 µg/mL; cited from earlier work
[9] = 50 µg/mL drug + Fe2+ (iron), 72 h
[10] = 50 µg/mL drug + Fe2+ (iron), 24 h

Compound | Histopathologic observation ([1]; 200 mg/kg oral, mouse 1) | Histopathologic observation ([1]; 200 mg/kg oral, mouse 2) | Histopathologic observation ([1]; 200 mg/kg oral, mouse 3) | Histopathologic observation ([1]; 400 mg/kg oral, mouse 1) | Histopathologic observation ([1]; 400 mg/kg oral, mouse 2) | Histopathologic observation ([1]; 400 mg/kg oral, mouse 3) | Histopathologic observation ([1]; 800 mg/kg oral, mouse 1) | Histopathologic observation ([1]; 800 mg/kg oral, mouse 2) | Histopathologic observation ([1]; 800 mg/kg oral, mouse 3) | liver histology, group summary ([1]; mice, 200 mg/kg oral, 8 h) | liver histology, group summary ([1]; mice, 800 mg/kg oral, 8 h) | plasma alkaline phosphatase (aPhos) ([1]; mice) | plasma aspartate aminotransferase (AST) ([1]; mice) | total serum bilirubin ([1]; mice) | inhibition of maximal ADP-stimulated respiration rate, glutamate + malate (complex I) [2] | viability of adult F. hepatica (viability score) [3, 9] | viability of adult F. hepatica (viability score) ([3]; 50 µg/mL drug + hemin, 72 h) | viability of adult F. hepatica (viability score) ([3]; 50 µg/mL drug alone, 72 h) | Histopathologic observation ([1]; 200 mg/kg oral, mouse 4) | Histopathologic observation ([1]; 400 mg/kg oral, mouse 4) | further results
C[C@H]1[C@H](OC(=O)CCC(=O)O)O[C@@H]2O[C@@]3(C)CC[C@H]4[C@H](C)CC[C@@H]1[C@@]24OO3 [AS, artesunate, reference compound] | No lesions | No lesions | No lesions | No lesions | No lesions | Beginning nodular regeneration | Steatosis | Small area of confluent necrosis | No lesions | not associated with liver injury | one mouse was without lesions, one with steatosis, and one with confluent necrosis | did not increase | moderately increased with escalating doses | did not increase | 75% | death of the worms | death of the worms | death of the worms | – | – | time of highest values of AST, aPhos and total serum bilirubin (pilot study) ([1]; mice, single oral dose 400 mg/kg, sampled 2, 4, 8, 12, 24 h): 8 h; liver lesions (pilot study) ([1]; mouse, in vivo, po, 400 mg/kg): no liver lesions were observed; LD50 ([4]; single intramuscular administration): 475 mg/kg; LD50 ([4]; single intravenous administration): 520 mg/kg
O=C(O)C[C@H]1CC[C@]2(CC1)OOC1(O2)C2CC3CC(C2)CC1C3 (stereo partly shown) [OZ78] | No lesions | Slight hydropic degeneration | Slight hydropic degeneration | Slight hydropic degeneration | Passive congestion | Nuclear polymorphism | Slight hydropic degeneration | No lesions | Passive congestion | two mice (out of four) with slight hydropic degeneration of hepatocytes | two mice (out of four) with slight hydropic degeneration of hepatocytes | in the normal range | in the normal range | in the normal range | did not significantly impair mitochondrial function | 2 | 2 | 2 | No lesions | Slight hydropic degeneration | Histopathologic observation ([1]; 800 mg/kg oral, mouse 4): Slight hydropic degeneration; liver histology, group summary ([1]; mice, 400 mg/kg oral, 8 h): two mice (out of four) with slight hydropic degeneration of hepatocytes; hepatic toxicity in vivo (overall) ([1]; mice, 8 h): no relevant hepatic toxicity; behaviour of drug solutions in medium [5]: tend to precipitate; mutagenic potential [6]: no mutagenic potential; viability of adult F. hepatica (viability score) [3, 10]: 3; viability of adult F. hepatica ([3]; 50 µg/mL drug + Fe2+ (iron)): more efficient in impairing worm viability than OZ78 alone; viability of adult F. hepatica (viability score) ([3]; 50 µg/mL drug + hemin, 24 h): 3; viability of adult F. hepatica ([3]; 50 µg/mL drug + hemin): more efficient in impairing worm viability than OZ78 alone; viability of adult F. hepatica (viability score) ([3]; 50 µg/mL drug alone, 24 h): no effect on worm vitality; effect in sheep [7]: no effect; activity against the liver fluke F. hepatica [8]: have activity
O=C(O)CC1CCC2(CC1)OOC1(OO2)C2CC3CC(C2)CC1C3 (stereo not shown) [MT04] | No lesions | No lesions | No lesions | Nuclear polymorphism | Nuclear polymorphism | No lesions | No lesions | Slight hydropic degeneration | Slight hydropic degeneration and nuclear polymorphism | – | Three out of four mice treated with 800 mg/kg MT04 presented hydropic degeneration | – | did not affect AST levels in a concentration-dependent fashion | – | 53% | 1.6 | death of the worms | 1.6 | Nuclear polymorphism | No lesions | Histopathologic observation ([1]; 800 mg/kg oral, mouse 4): Slight hydropic degeneration and nuclear polymorphism; AST values of single mice ([1]; mice, 200 mg/kg oral, 8 h): Two mice treated with 200 mg/kg MT04 had highly elevated AST values; liver histology, group summary ([1]; mice, 400 mg/kg oral, 8 h): no pathologic liver histology; hepatic toxicity in vivo (overall) ([1]; mice, 8 h): no relevant hepatic toxicity; behaviour of drug solutions in medium [5]: tend to precipitate; viability of adult F. hepatica (viability score) [3, 10]: 2.2; viability of adult F. hepatica (viability score) ([3]; 50 µg/mL drug + hemin, 24 h): 2.5; viability of adult F. hepatica (viability score) ([3]; 50 µg/mL drug alone, 24 h): not affected; egg count reduction [7]: 98.5%; worm burden reduction [7]: 92%; activity against the liver fluke F. hepatica [8]: have activity
